Measured values published in patent US11149037B2, “Pyrazole MAGL inhibitors” (H. Lundbeck A/S, priority 2017, dated 2021).

Key:
Type in all cases: biochemical
FAAH [1] = target: FAAH (Mus musculus (Mouse), UniProt O08914); test: In vitro competitive activity-based protein profiling, mouse proteomes (brain membrane fraction or cell lysates); settings: mouse proteome, read-out: FAAH % inh. 1 μM (mouse)
How it was run: (§1)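 Activity of MAGL and FAAH was quantified from fluorescent gel band intensities. Beforehand, inhibitors at several concentrations competed against subsequent probe labelling (FP-Rh, JW912 or HT-01) in species-matched proteomes, each step 30 min at 37° C.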

MAGL [2] = target: MAGL (Mus musculus (Mouse), UniProt O35678); test: as above; settings: mouse proteome, read-out: MAGL % inh. 1 μM (mouse)
Sequence of MAGL (Mus musculus (Mouse), UniProt O35678) (O35678 whole entry): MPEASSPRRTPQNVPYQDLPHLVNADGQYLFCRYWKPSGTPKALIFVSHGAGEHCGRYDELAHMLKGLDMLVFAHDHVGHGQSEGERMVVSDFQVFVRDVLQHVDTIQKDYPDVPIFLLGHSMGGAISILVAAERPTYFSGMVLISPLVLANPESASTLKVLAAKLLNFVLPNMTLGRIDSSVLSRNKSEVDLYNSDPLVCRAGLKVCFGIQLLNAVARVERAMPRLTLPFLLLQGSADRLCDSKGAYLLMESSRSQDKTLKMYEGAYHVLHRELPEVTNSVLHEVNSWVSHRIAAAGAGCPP
How it was run: as §1

MAGL [3] = target: MAGL (Homo sapiens (Human), UniProt Q99685); test: In vitro competitive activity-based protein profiling, human proteomes (prefrontal cortex or PC3 cell membrane fractions); settings: human proteome; for inhibition at 1 µM: read-out: MAGL % inh. 1 μM (human)
Sequence of MAGL (Homo sapiens (Human), UniProt Q99685) (Q99685 whole entry): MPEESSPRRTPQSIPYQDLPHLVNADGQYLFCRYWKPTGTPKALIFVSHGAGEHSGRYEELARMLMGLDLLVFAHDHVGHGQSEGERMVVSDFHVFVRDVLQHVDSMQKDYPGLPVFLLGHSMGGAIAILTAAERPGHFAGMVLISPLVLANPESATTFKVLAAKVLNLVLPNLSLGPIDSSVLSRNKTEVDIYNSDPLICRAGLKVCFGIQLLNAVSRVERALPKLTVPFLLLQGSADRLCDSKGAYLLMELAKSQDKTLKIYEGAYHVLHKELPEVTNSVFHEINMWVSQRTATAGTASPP
How it was run: as §1

FAAH [4] = target: FAAH (Homo sapiens (Human), UniProt O00519); test: as above; settings: human proteome; for inhibition at 1 µM: read-out: FAAH % inh. 1 μM (human)
Sequence of FAAH (Homo sapiens (Human), UniProt O00519) (O00519 whole entry): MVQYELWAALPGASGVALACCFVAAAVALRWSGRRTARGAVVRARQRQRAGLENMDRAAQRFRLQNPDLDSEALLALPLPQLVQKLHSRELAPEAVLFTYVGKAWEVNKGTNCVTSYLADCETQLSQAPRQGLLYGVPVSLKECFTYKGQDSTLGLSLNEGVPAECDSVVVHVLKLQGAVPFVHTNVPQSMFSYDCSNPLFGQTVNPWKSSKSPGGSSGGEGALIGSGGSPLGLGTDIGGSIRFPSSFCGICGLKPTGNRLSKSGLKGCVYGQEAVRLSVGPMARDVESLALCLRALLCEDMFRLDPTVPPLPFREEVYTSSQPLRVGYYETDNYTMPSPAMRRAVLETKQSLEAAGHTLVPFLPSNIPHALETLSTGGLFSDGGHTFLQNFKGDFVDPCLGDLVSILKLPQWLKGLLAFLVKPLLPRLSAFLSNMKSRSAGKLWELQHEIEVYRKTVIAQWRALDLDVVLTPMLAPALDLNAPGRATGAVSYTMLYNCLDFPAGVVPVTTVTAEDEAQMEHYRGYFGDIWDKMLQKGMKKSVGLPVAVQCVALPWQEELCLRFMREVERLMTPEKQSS
How it was run: as §1

Sequence of FAAH (Mus musculus (Mouse), UniProt O08914) (O08914 whole entry): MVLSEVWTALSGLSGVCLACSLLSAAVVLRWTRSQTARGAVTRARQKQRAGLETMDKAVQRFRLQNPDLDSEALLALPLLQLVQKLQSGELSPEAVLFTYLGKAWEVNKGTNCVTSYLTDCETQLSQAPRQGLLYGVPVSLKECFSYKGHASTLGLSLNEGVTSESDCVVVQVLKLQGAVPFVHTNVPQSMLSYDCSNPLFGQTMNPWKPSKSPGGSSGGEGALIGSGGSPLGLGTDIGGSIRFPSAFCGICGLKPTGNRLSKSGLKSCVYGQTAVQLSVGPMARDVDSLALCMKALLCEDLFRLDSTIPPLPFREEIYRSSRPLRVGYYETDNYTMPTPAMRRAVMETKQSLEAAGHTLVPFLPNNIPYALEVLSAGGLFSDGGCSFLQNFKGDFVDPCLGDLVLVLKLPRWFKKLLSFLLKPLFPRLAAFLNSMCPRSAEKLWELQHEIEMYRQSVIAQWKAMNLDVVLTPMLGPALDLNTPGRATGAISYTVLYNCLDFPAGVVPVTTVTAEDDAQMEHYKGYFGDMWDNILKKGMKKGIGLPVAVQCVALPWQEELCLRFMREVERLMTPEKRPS

| Structure (SMILES) | inhibition at 1 µM (FAAH [1]) [%] | inhibition at 1 µM (MAGL [2]) [%] | inhibition at 1 µM (MAGL [3]) [%] | inhibition at 1 µM (FAAH [4]) [%] | IC50 (MAGL [3]) [µM] | IC50 (FAAH [4]) [µM] | inhibition at 10 µM (MAGL [3]; 10 μM, read-out: MAGL % inh. (human) @ 10 μM) [%] |
| --- | --- | --- | --- | --- | --- | --- | --- |
| CC(=O)Nc1ccn(C(=O)N2CCC3(CCCN3Cc3cc4cc(Cl)cc(Cl)c4[nH]3)CC2)n1 [Example 13, N-(1-(1-((5,7-dichloro-1H-indol-2-yl)methyl)-1,8-diazaspiro[4.5]decane-8-carbonyl)-1H-pyrazol-3-yl)acetamide] | 25 to 50 | > 75 |  |  | < 0.1 | 1 to 10 |  |
| CC(=O)Nc1ccn(C(=O)N2CC3CN(Cc4cc(N5CCOCC5)cc(C(F)(F)F)c4)CC3C2)n1 (stereo not drawn) [Example 166, N-(1-(5-(3-Morpholino-5-(trifluoromethyl)benzyl)octahydropyrrolo[3,4-c]pyrrole-2-carbonyl)-1H-pyrazol-3-yl)acetamide] | > 75 | > 75 | > 75 | 0 to 25 |  |  |  |
| Cc1cc(CN2CCCC23CCN(C(=O)n2ccc(NC(=O)C4CC4)n2)CC3)ccc1Cl [Example 83, N-(1-(1-(4-Chloro-3-methylbenzyl)-1,8-diazaspiro[4.5]decane-8-carbonyl)-1H-pyrazol-3-yl)cyclopropanecarboxamide] | 0 to 25 | > 75 | > 75 | 0 to 25 |  |  |  |
| CC(=O)Nc1ccn(C(=O)N2CC3CN(Cc4cccc(OC(F)(F)F)c4)CC3C2)n1 (stereo not drawn) [Example 113, N-(1-(5-(3-(Trifluoromethoxy)benzyl)octahydropyrrolo[3,4-c]pyrrole-2-carbonyl)-1H-pyrazol-3-yl)acetamide] | > 75 | > 75 | > 75 | 25 to 50 |  |  |  |
| CS(=O)(=O)Nc1ccn(C(=O)N2CCC(Oc3ccc(C(F)(F)F)cc3NCC(=O)O)CC2)n1 [Example 99, (2-((1-(3-(Methylsulfonamido)-1H-pyrazole-1-carbonyl)piperidin-4-yl)oxy)-5-(trifluoromethyl)phenyl)glycine] | 0 to 25 | > 75 | > 75 | 0 to 25 |  |  |  |
| CC(=O)Nc1ccn(C(=O)N2CCN(Cc3ccc(Cl)cc3OCC(=O)O)CC2)n1 [Example 3, 2-(2-((4-(3-acetamido-1H-pyrazole-1-carbonyl)piperazin-1-yl)methyl)-5-chlorophenoxy)acetic acid] | 0 to 25 | > 75 | > 75 | 0 to 25 |  |  |  |
| CS(=O)(=O)Nc1ccn(C(=O)N2CCN(Cc3cccc(Oc4ccc(Cl)cc4)c3)CC2)n1 [Example 149, N-(1-(4-(3-(4-Chlorophenoxy)benzyl)piperazine-1-carbonyl)-1H-pyrazol-3-yl)methanesulfonamide] | > 75 | > 75 | > 75 | > 75 | < 0.1 | 0.1 to 1 |  |
| CS(=O)(=O)Nc1ccn(C(=O)N2CCN(Cc3ccc(C(F)(F)F)cc3NCCC(=O)O)CC2)n1 [Example 77, 3-((2-((4-(3-(Methylsulfonamido)-1H-pyrazole-1-carbonyl)piperazin-1-yl)methyl)-5-(trifluoromethyl)phenyl)amino)propanoic acid] | 0 to 25 | 0 to 25 | 50 to 75 | 0 to 25 |  |  |  |
| CS(=O)(=O)Nc1ccn(C(=O)N2CCC3(CCN(Cc4ccccc4Cl)C3)CC2)n1 [Example 162, N-(1-(2-(2-Chlorobenzyl)-2,8-diazaspiro[4.5]decane-8-carbonyl)-1H-pyrazol-3-yl)methanesulfonamide] | 0 to 25 | 0 to 25 | > 75 | 0 to 25 |  |  |  |
| CS(=O)(=O)Nc1ccn(C(=O)N2CCC(Oc3cccc(C(F)(F)F)c3-c3nnco3)CC2)n1 [Example 7, N-(1-(4-(2-(1,3,4-oxadiazol-2-yl)-3-(trifluoromethyl)phenoxy)piperidine-1-carbonyl)-1H-pyrazol-3-yl)methanesulfonamide] | 0 to 25 | > 75 | > 75 | 0 to 25 |  |  |  |
| CC(=O)Nc1ccn(C(=O)N2CCC3(CCCN3Cc3cc4cc(Cl)ccc4[nH]3)CC2)n1 [Example 38, N-(1-(1-((5-Chloro-1H-indol-2-yl)methyl)-1,8-diazaspiro[4.5]decane-8-carbonyl)-1H-pyrazol-3-yl)acetamide] | 25 to 50 | > 75 |  |  | < 0.1 | 1 to 10 |  |
| CS(=O)(=O)Nc1ccn(C(=O)N2CCC(Oc3ccc(C(F)(F)F)c(-c4nnco4)c3)CC2)n1 [Example 5, N-(1-(4-(3-(1,3,4-Oxadiazol-2-yl)-4-(trifluoromethyl)phenoxy)piperidine-1-carbonyl)-1H-pyrazol-3-yl)methanesulfonamide] | 0 to 25 | > 75 | > 75 | 0 to 25 |  |  |  |
| CC(=O)Nc1ccn(C(=O)N2CC3CN(Cc4cc(Cl)cc(C(C)(C)O)c4)CC3C2)n1 (stereo not drawn) [Example 16, N-(1-(5-(3-chloro-5-(2-hydroxypropan-2-yl)benzyl)octahydropyrrolo[3,4-c]pyrrole-2-carbonyl)-1H-pyrazol-3-yl)acetamide] | 25 to 50 | > 75 | > 75 | 25 to 50 |  |  |  |
| CC(=O)Nc1ccn(C(=O)N2CCC3(CCCN3C(=O)c3ccc(Cl)c(C)c3)CC2)n1 [Example 84, N-(1-(1-(4-Chloro-3-methylbenzoyl)-1,8-diazaspiro[4.5]decane-8-carbonyl)-1H-pyrazol-3-yl)acetamide] | 0 to 25 | > 75 | > 75 | 0 to 25 |  |  |  |
| C[C@H]1CN(C(=O)n2ccc(NS(C)(=O)=O)n2)CCN1Cc1cnc(Cl)c(N2CCC(F)CC2)c1 [Example 31, (S)—N-(1-(4-((6-chloro-5-(4-fluoropiperidin-1-yl)pyridin-3-yl)methyl)-3-methylpiperazine-1-carbonyl)-1H-pyrazol-3-yl)methanesulfonamide] | 0 to 25 | > 75 | > 75 | 0 to 25 |  |  |  |

Results, then the compound that gave them:

| inhibition at 1 µM (FAAH [1]) [%] | inhibition at 1 µM (MAGL [2]) [%] | inhibition at 1 µM (MAGL [3]) [%] | inhibition at 1 µM (FAAH [4]) [%] | IC50 (MAGL [3]) [µM] | IC50 (FAAH [4]) [µM] | inhibition at 10 µM (MAGL [3]; 10 μM, read-out: MAGL % inh. (human) @ 10 μM) [%] | Structure (SMILES) |
| --- | --- | --- | --- | --- | --- | --- | --- |
| 0 to 25 | > 75 | > 75 | 0 to 25 |  |  |  | CN(c1ccc(C(F)(F)F)cc1N1CCCC1)C1CCN(C(=O)n2ccc(NS(C)(=O)=O)n2)CC1 [Example 19, N-(1-(4-(methyl(2-(pyrrolidin-1-yl)-4-(trifluoromethyl)phenyl)amino)piperidine-1-carbonyl)-1H-pyrazol-3-yl)methanesulfonamide] |
| > 75 | > 75 | > 75 | > 75 | < 0.1 | 0.1 to 1 |  | CC(=O)Nc1ccn(C(=O)N2CC3CN(Cc4ccc(N5CCCC5)cc4C(F)(F)F)CC3C2)n1 (stereo not drawn) [Example 121, N-(1-(5-(4-(Pyrrolidin-1-yl)-2-(trifluoromethyl)benzyl)octahydropyrrolo[3,4-c]pyrrole-2-carbonyl)-1H-pyrazol-3-yl)acetamide] |
| > 75 | > 75 |  |  | < 0.1 | 0.1 to 1 |  | CC(=O)Nc1ccn(C(=O)N2CC3CN(Cc4cc(Cl)cc(N5CCCC5)c4)CC3C2)n1 (stereo not drawn) [Example 172, N-(1-(5-(3-Chloro-5-(pyrrolidin-1-yl)benzyl)octahydropyrrolo[3,4-c]pyrrole-2-carbonyl)-1H-pyrazol-3-yl)acetamide] |
| 0 to 25 | 0 to 25 |  | 0 to 25 |  |  | 50 to 75 | CS(=O)(=O)Nc1ccn(C(=O)N2CCN(Cc3ccc(C(N)=O)c(C(F)(F)F)c3)CC2)n1 [Example 10, 4-((4-(3-(methylsulfonamido)-1H-pyrazole-1-carbonyl)piperazin-1-yl)methyl)-2-(trifluoromethyl)benzamide] |
| 0 to 25 | 50 to 75 | > 75 | 0 to 25 |  |  |  | CS(=O)(=O)Nc1ccn(C(=O)N2CCN(Cc3ccncc3N3CCCC3)CC2)n1 [Example 82, N-(1-(4-((3-(Pyrrolidin-1-yl)pyridin-4-yl)methyl)piperazine-1-carbonyl)-1H-pyrazol-3-yl)methanesulfonamide] |
| > 75 | 50 to 75 | 50 to 75 | 0 to 25 |  |  |  | CN(Cc1ccc(N2CCCC2)cc1C(F)(F)F)[C@H]1C[C@@H]2CN(C(=O)n3ccc(NS(C)(=O)=O)n3)C[C@@H]2C1 [Example 50, N-(1-((3aR,5r,6aS)-5-(Methyl(4-(pyrrolidin-1-yl)-2-(trifluoromethyl)benzyl)amino)octahydrocyclopenta[c]pyrrole-2-carbonyl)-1H-pyrazol-3-yl)methanesulfonamide] |
| 0 to 25 | > 75 | > 75 | 0 to 25 |  |  |  | CS(=O)(=O)Nc1ccn(C(=O)N2CCN(Cc3ccc(C(F)(F)F)cc3S(=O)(=O)C3CC3)CC2)n1 [Example 89, N-(1-(4-(2-(Cyclopropylsulfonyl)-4-(trifluoromethyl)benzyl)piperazine-1-carbonyl)-1H-pyrazol-3-yl)methanesulfonamide] |
| 0 to 25 | 0 to 25 | > 75 | 0 to 25 |  |  |  | CN(Cc1ccc(Cl)c(N2CC3COCC3C2)c1)C1(C)CCN(C(=O)n2ccc(NS(C)(=O)=O)n2)CC1 (stereo not drawn) [Example 26, N-(1-(4-((4-Chloro-3-(tetrahydro-1H-furo[3,4-c]pyrrol-5(3H)-yl)benzyl)(methyl)amino)-4-methylpiperidine-1-carbonyl)-1H-pyrazol-3-yl)methanesulfonamide] |
